According to patent US9156830B2, “Heterocyclic compounds” (SHIONOGI & CO., LTD., priority 2011, dated 2015):
pIC50: −log10 of the molar value.

How the values were obtained:
[1] = Measurement of Body Temperature Increase; type: in vivo; conditions: Crl/SD rats, oral, 1 mg/mL in 0.5% methylcellulose at 10 mL/kg; rectal temperature 0.5, 1 and 2 hrs after administration; difference from vehicle group average
Experimental: Selection of rats (Crl/SD rats, 7 weeks, male) for this study is based on rectal body temperature measured during the morning of the day of dosing. In addition, animals selected for this study are acclimated to both the rectal measurement procedure and to being handled and dosed to minimize spontaneous, stress-induced, increases in body temperature. The study is conducted in the animal care laboratories where the room temperature and humidity are kept. The rats are free to move and food and water during the study. Each rat is numbered with color line on the tail, housed in each cage and permittted the normal range of movement. Immediately before each body temperature is measured, they transferred to a single cage at each measurement. To reduce stress which affected the body temperature, the rats are covered with towels at the measurement. The thermistor probe is then carefully inserted into the rectum of each rat and left in place until the value on the digital display had stabilized.
On the day before dosing, rectal body temperatures are measured at 9:00, 10:00, 11:00, 12:30, 13:30, 14:30 and 15:30 to familiarize the animals with the measurement procedure prior to administration of the test or control treatments. The rats are also dosed by oral gavage without vehicle at 12:30 to acclimate and familiarized the animals with the handling and dosing procedure.
On the day of dosing, only rats whose rectal body temperatures are within the range of 37.0° C. to 37.7° C. are selected for this study. Rectal body temperatures are measured at 9:00, 10:00 and 11:00. Rats whose rectal body temperatures are over 37.9° C. at 10:00, and are outside the range of 37.0° C. to 37.7° C. at 11:00 are excluded from the study. The selected rats are divided to several groups based on their rectal body temperatures at 11:00. Rectal body temperatures of the selected rats are measured again at 12:30, and any rats whose rectal body temperature is 38.0° C. or greater are excluded from the study.
Following the group assignment, test compounds or vehicle is administrated to the rats. Each test compound is dissolved in 0.5% methylcellulose and the final concentration of the compound is adjusted to 1 mg/mL. Test compound is orally administrated in a volume 10 mL/kg once. 10 mL/kg of vehicle (0.5% methylcellulose) is administered to the vehicle group. The rectal body temperatures are measured 0.5, 1 and 2 hrs after the administration. The study is conducted in the animal care laboratories where the room temperature and humidity are kept.
Body temperature increase (ΔTb) is calculated from the difference from an average of the vehicle group at each time point. The body temperature increases (ΔTb) of Compounds I-20, I-25, I-26, I-28, I-29, I-33, I-34, I-36, I-37, I-63 and I-64 were less than 0.3° C.

Human TRPV1 [2] = target: T1, Human TRPV1 (Homo sapiens (Human), UniProt Q8NER1); experiment: Capsaicin-Based Assay (Protocol 2), TRPV1/CHO cells; type: cell-based; conditions: capsaicin 100 nM final, Fluo-4, read-out: TRPV1 IC50 Potency Capsaicin-Based Assay IC50
T1 sequence (Q8NER1 whole entry): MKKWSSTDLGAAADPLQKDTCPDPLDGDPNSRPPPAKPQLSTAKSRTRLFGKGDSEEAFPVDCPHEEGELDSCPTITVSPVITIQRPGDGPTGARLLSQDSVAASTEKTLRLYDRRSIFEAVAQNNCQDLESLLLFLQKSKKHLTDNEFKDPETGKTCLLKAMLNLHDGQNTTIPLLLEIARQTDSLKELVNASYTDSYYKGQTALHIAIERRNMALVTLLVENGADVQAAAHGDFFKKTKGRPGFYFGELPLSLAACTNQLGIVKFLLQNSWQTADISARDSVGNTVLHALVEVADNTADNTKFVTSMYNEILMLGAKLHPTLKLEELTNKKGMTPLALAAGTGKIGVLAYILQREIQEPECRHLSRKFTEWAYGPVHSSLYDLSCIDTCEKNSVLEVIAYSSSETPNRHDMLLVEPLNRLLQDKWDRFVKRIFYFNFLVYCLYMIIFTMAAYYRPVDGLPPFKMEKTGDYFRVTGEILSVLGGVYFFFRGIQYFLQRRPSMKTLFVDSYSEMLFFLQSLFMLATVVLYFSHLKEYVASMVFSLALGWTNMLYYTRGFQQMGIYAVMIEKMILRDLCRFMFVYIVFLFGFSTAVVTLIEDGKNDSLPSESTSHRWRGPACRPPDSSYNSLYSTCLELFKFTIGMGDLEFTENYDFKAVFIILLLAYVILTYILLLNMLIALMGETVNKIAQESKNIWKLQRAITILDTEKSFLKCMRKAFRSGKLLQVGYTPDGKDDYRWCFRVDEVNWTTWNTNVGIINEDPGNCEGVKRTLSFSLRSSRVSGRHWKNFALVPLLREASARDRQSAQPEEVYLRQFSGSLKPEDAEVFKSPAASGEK
Experimental: The TRPV1/CHO cell line was generated as described below. […] Subsequently, the cells were loaded by incubation in 0.1 mL of wash buffer containing Fluo-4 at 3 μM final concentration. After 1 hour, the cells were washed twice with 0.2 mL wash buffer and resuspended in 0.1 mL wash buffer. The plates were then transferred to a Fluorescence Imaging Plate Reader (Molecular Devices). Fluorescence intensity was monitored for 15 seconds to establish a baseline. […] The final concentration of the compound was adjusted to range from 100 μM to 1.5625 μM. […] Data were collected over the entire time course and analyzed using Excel and the curve-fitting formula GraphPad Prism.

Human TRPV1 [3] = target: T1, Human TRPV1; experiment: pH-Based Assay (Protocol 2), Ca2+ response in TRPV1/CHO cells; type: cell-based; conditions: pH 5.0-5.1 (H2SO4)
Experimental: The TRPV1/CHO cell line was generated as described below. The following assay was conducted to determine the concentration of sulfuric acid that would give rise to a pH that induces a […] response optimal to test compounds for their effect on TRPV1. […] For one half of a 96-well plate one agonist solution was used, for the other half the other agonist solution. The agonist solutions were obtained by diluting sulfuric acid (H2SO4, 1 M) with measuring buffer. The concentrations for the two agonist solutions were determined as described above in Section 2 of Protocol 2. The sulfuric acid concentrations between the two agonist solutions differed by 0.5 mM. […] The thereby-obtained solutions were further diluted in measuring buffer (1:100) as 10× stock serial dilutions with a DMSO concentration of 1%. 10 μL of a 10× stock was added into each well at step 3.3.(4) of Protocol 2. Thus, the final concentrations of antagonists ranged from 1000-0.977 nM containing 0.1% DMSO (FIG. 3B). […] (3) The cells were washed twice with 150 μL of measuring buffer (mentioned in 2.2.(3) of Protocol 2, no probenecid). The wells were subsequently refilled with 70 μL of measuring buffer. (4) Either 10 μL of measuring buffer or 10 μL of 10× stock serial dilution of test compound (described in 3.2. above) were applied to each well. Usually, only one test compound was tested per 96-well plate. The number of replicates per 96-well plate for a particular antagonist at a particular concentration was 7×2 since two different sulfuric acid concentrations were used per 96-well plate (N=7×2)(FIG. 3). Step (5) was the same as 2.2.(4) above. (6) Fura-2 fluorescent intensity was monitored as described in 2.2.(5) above. […] Steps (7) and (8) were as described in 2.2.(6) and 2.2.(7) above, respectively. […] FIG. 3) were measured one by one using a portable pH meter.

Body temperature increase (ΔTb) [1] | Compound | other results
less than 0.3 °C | O=C(Nc1ccc(C(F)(F)F)cn1)N1CC=C(c2ncc(-c3cc(CO)on3)cc2Cl)CC1 [Compound I-33, 4-(3-chloro-5-(5-(hydroxymethyl)isoxazol-3-yl)pyridin-2-yl)-N-(5-(trifluoromethyl)pyridin-2-yl)-5,6-dihydropyridine-1(2H)-carboxamide] | 
less than 0.3 °C | O=C(Nc1ccc(C(F)(F)F)cn1)N1CC=C(c2ncc(-c3nc(CO)no3)cc2F)CC1 [Compound I-63, 4-(3-fluoro-5-(3-(hydroxymethyl)-1,2,4-oxadiazol-5-yl)pyridin-2-yl)-N-(5-(trifluoromethyl)pyridin-2-yl)-5,6-dihydropyridine-1(2H)-carboxamide] | 
less than 0.3 °C | O=C(Nc1ccc(C(F)(F)F)c(Cl)c1)N1CC=C(c2ncc(-c3nc(CO)no3)cc2Cl)CC1 [Compound I-36, N-(3-chloro-4-(trifluoromethyl)phenyl)-4-(3-chloro-5-(3-(hydroxymethyl)-1,2,4-oxadiazol-5-yl)pyridin-2-yl)-5,6-dihydropyridine-1(2H)-carboxamide] | pIC50 (Human TRPV1 [3]; Fura-2, read-out: IC50 value by the pH-Based Assay): ≥ 7.00
less than 0.3 °C | O=C(Nc1ccc(C(F)(F)F)cn1)N1CC=C(c2ncc(-c3nc(CO)no3)cc2Cl)CC1 [Compound I-37, 4-(3-chloro-5-(3-(hydroxymethyl)-1,2,4-oxadiazol-5-yl)pyridin-2-yl)-N-(5-(trifluoromethyl)pyridin-2-yl)-5,6-dihydropyridine-1(2H)-carboxamide] | 
less than 0.3 °C | O=C(Nc1nc2ccc(F)cc2s1)N1CC=C(c2ncc(-c3cc(CO)on3)cc2Cl)CC1 [Compound I-34, 4-(3-chloro-5-(5-(hydroxymethyl)isoxazol-3-yl)pyridin-2-yl)-N-(6-fluorobenzo[d]thiazol-2-yl)-5,6-dihydropyridine-1(2H)-carboxamide] | pIC50 (Human TRPV1 [3]; Fura-2, read-out: TRPV1 IC50 Potency pH-Based Assay IC50): 7.47
less than 0.3 °C | Cc1cc(NC(=O)N2CC=C(c3ncc(-c4nc(CO)no4)cc3F)CC2)ccc1C(F)(F)F [Compound I-64, 4-(3-fluoro-5-(3-(hydroxymethyl)-1,2,4-oxadiazol-5-yl)pyridin-2-yl)-N-(3-methyl-4-(trifluoromethyl)phenyl)-5,6-dihydropyridine-1(2H)-carboxamide] | 

The next lines start with the compound.

Compound | Body temperature increase (ΔTb) [1] | other results
O=C(Nc1ccc(C(F)(F)F)c(Cl)c1)N1CC=C(c2ncc(-c3ocnc3CO)cc2Cl)CC1 [Compound I-28, N-(3-chloro-4-(trifluoromethyl)phenyl)-4-(3-chloro-5-(4-(hydroxymethyl)oxazol-5-yl)pyridin-2-yl)-5,6-dihydropyridine-1(2H)-carboxamide] | less than 0.3 °C | 
O=C(Nc1ccc(C(F)(F)F)c(Cl)c1)N1CC=C(c2ncc(-c3nnc([C@H](O)CO)o3)cc2Cl)CC1 [Compound I-20, (R) —N-(3-chloro-4-(trifluoromethyl)phenyl)-4-(3-chloro-5-(5-(1,2-dihydroxyethyl)-1,3,4-oxadiazol-2-yl)pyridin-2-yl)-5,6-dihydropyridine-1(2H)-carboxamide] | less than 0.3 °C | pIC50 (Human TRPV1 [2]): 6.83
O=C(Nc1ccc(C(F)(F)F)c(Cl)c1)N1CC=C(c2ncc(-c3noc(CO)n3)cc2Cl)CC1 [Compound I-25, N-(3-chloro-4-(trifluoromethyl)phenyl)-4-(3-chloro-5-(5-(hydroxymethyl)-1,2,4-oxadiazol-3-yl)pyridin-2-yl)-5,6-dihydropyridine-1(2H)-carboxamide] | less than 0.3 °C | 
O=C(Nc1ccc(C(F)(F)F)cn1)N1CC=C(c2ncc(-c3noc(CO)n3)cc2Cl)CC1 [Compound I-26, 4-(3-chloro-5-(5-(hydroxymethyl)-1,2,4-oxadiazol-3-yl)pyridin-2-yl)-N-(5-(trifluoromethyl)pyridin-2-yl)-5,6-dihydropyridine-1(2H)-carboxamide] | less than 0.3 °C | 
O=C(Nc1ccc(C(F)(F)F)c(Cl)c1)N1CC=C(c2ncc(-c3cc(CO)on3)cc2Cl)CC1 [Compound I-29, N-(3-chloro-4-(trifluoromethyl)phenyl)-4-(3-chloro-5-(5-(hydroxymethyl)isoxazol-3-yl)pyridin-2-yl)-5,6-dihydropyridine-1(2H)-carboxamide] | less than 0.3 °C | 
